From publication PMC11748363, “Antimicrobial and Antiproliferative Properties of 2‐Phenyl‐N‐(Pyridin‐2‐yl)acetamides” (Chemical Biology & Drug Design, 2025)
In brackets after ≈: the same amount, converted by molar mass. Read-outs that look alike come from different tables or passages of the source.

How the values were obtained:
[1] = tested on: Mycobacterium tuberculosis H37Ra; experiment: Antimycobacterial microdilution broth MIC (resazurin), Mtb H37Ra; format: cell-based; details: for MIC: Mycobacterium tuberculosis, H37RA, read-out: MIC Mtb H37Ra; for SI (selectivity index): SI = HepG2 IC50 (μM)/MIC MtbH37Ra (μM), calculated for compounds with MIC ≤ 31.25 μg/mL
[2] = tested on: Mycolicibacterium smegmatis DSM 43465; experiment: Antimycobacterial microdilution broth MIC (resazurin), M. smegmatis; format: cell-based; details: DSM43465, read-out: MIC M. smegmatis
[3] = tested on: Mycolicibacterium aurum DSM 43999; experiment: Antimycobacterial microdilution broth MIC (resazurin), M. aurum; format: cell-based; details: DSM43999, read-out: MIC M. aurum
HepG2 cell line = experiment: Cytotoxicity CellTiter 96, HepG2; format: cell-based, human; details: Homo sapiens, HepG2, 24 h, 24 h incubation; ^c compound precipitated in the testing medium; ^d over the limit of tested concentrations
Procedure: The cytotoxicity of final compounds was determined in human hepatocellular carcinoma cell line HepG2.
Cytotoxicity determination
Human hepatocellular liver carcinoma cell line HepG2 purchased from Health Protection Agency Culture Collections (ECACC, Salisbury, UK) was cultured in MEM (Minimum Essentials Eagle Medium, Sigma–Aldrich) supplemented with 10% fetal bovine serum (PAA Laboratories, Pasching, Austria), 1% L-glutamine solution (Sigma–Aldrich) and non-essential amino acid solution (Sigma–Aldrich) in a humidified atmosphere containing 5% CO2 at 37 °C. For subculturing, the cells were harvested after trypsin/EDTA (Sigma–Aldrich) treatment at 37 °C. To evaluate cytotoxicity, the cells treated with the tested substances were used as experimental groups whereas untreated HepG2 cells served as controls. The cells were seeded in density 10,000 cells per well in a 96 well plate. The next day the cells were treated with each of the tested substances dissolved in DMSO. The tested substances were
in triplicates according to their solubility. Simultaneously, the controls representing 100% cell viability, 0% cell viability (the cells treated with 10% DMSO), no cell control and vehiculum controls were also
the reagent from the kit CellTiter 96 AQueous One Solution Cell Proliferation Assay (CellTiter 96; PROMEGA, Fitchburg, USA) was added. After 2h incubation at 37 °C, absorbance of samples was recorded at 490 nm (TECAN, Infinita M200, Austria). A standard toxicological parameter IC50 was calculated by nonlinear regression from a semilogarithmic plot of incubation concentration versus percentage of absorbance relative to untre ated controls using GraphPad Prism 8 software.

[4] = tested on: Staphylococcus aureus CCM 4223, ATCC 29213; experiment: Antibacterial microdilution broth MIC, SA; format: cell-based; details: Staphylococcus aureus
[5] = tested on: Staphylococcus aureus subsp. aureus CCM 4750, ATCC 43300 (MRSA); experiment: Antibacterial microdilution broth MIC, MRSA; format: cell-based; details: Staphylococcus aureus
[6] = tested on: Staphylococcus epidermidis CCM 4418, ATCC 12228; experiment: Antibacterial microdilution broth MIC, SE; format: cell-based
[7] = tested on: Enterococcus faecalis CCM 4224, ATCC 29212; experiment: Antibacterial microdilution broth MIC, EF; format: cell-based
[8] = tested on: Escherichia coli CCM 3954, ATCC 25922; experiment: Antibacterial microdilution broth MIC, EC; format: cell-based
[9] = tested on: Acinetobacter baumannii DSM 30007, ATCC 19606; experiment: Antibacterial microdilution broth MIC, ACI; format: cell-based
[10] = tested on: Pseudomonas aeruginosa CCM 3955, ATCC 27853; experiment: Antibacterial microdilution broth MIC, PA; format: cell-based
[11] = tested on: Candida albicans CCM 8320, ATCC 24433; experiment: Antifungal microdilution broth MIC, CA
[12] = tested on: Candida krusei CCM 8271, ATCC 6258; experiment: Antifungal microdilution broth MIC, CK; details: Pichia kudriavzevii
[13] = tested on: Candida parapsilosis CCM 8260, ATCC 22019; experiment: Antifungal microdilution broth MIC, CP; details: Lodderomyces parapsilosis
[14] = tested on: Candida tropicalis CCM 8264, ATCC 750; experiment: Antifungal microdilution broth MIC, CT
[15] = tested on: Aspergillus fumigatus ATCC 204305; experiment: Antifungal microdilution broth MIC, AF
[16] = tested on: Lichtheimia corymbifera CCM 8077; experiment: Antifungal microdilution broth MIC, LC
[17] = tested on: Trichophyton interdigitale CCM 8377, ATCC 9533; experiment: Antifungal microdilution broth MIC, TI; details: Trichophyton interdigitale
[18] = tested on: Aspergillus flavus CCM 8363; experiment: Antifungal microdilution broth MIC, AFla
[19] = tested on: Klebsiella pneumoniae CCM 4415, ATCC 10031; experiment: Antibacterial microdilution broth MIC, KP
[20] = ATCC204305, 24 h, read-out: MIC AF 24h
[21] = ATCC204305, 48 h, read-out: MIC AF 48h
[22] = CCM8077, 24 h, read-out: MIC LC 24h
[23] = CCM8077, 48 h, read-out: MIC LC 48h
[24] = CCM8363, 24 h, read-out: MIC AFla 24h
[25] = CCM8363, 48 h, read-out: MIC AFla 48h

Row | Structure (SMILES) | MIC ([1]; Calculated from MIC (μg/mL)) | MIC [1] | MIC [2] | MIC [3] | IC50 (HepG2 cell line) | MIC ([4]; 24 h, read-out: MIC SA 24h) | MIC ([4]; 48 h, read-out: MIC SA 48h) | MIC ([5]; 24 h, read-out: MIC MRSA 24h) | MIC ([5]; 48 h, read-out: MIC MRSA 48h) | MIC ([6]; 24 h, read-out: MIC SE 24h) | MIC ([6]; 48 h, read-out: MIC SE 48h) | MIC ([7]; 24 h, read-out: MIC EF 24h) | MIC ([7]; 48 h, read-out: MIC EF 48h) | MIC ([8]; 24 h, read-out: MIC EC 24h) | MIC ([8]; 48 h, read-out: MIC EC 48h) | MIC ([9]; 24 h, read-out: MIC ACI 24h) | MIC ([9]; 48 h, read-out: MIC ACI 48h) | MIC ([10]; 24 h, read-out: MIC PA 24h) | MIC ([10]; 48 h, read-out: MIC PA 48h) | MIC ([11]; 24 h, read-out: MIC CA 24h) | other results
1 | O=C(Cc1ccccc1Cl)Nc1cccc(Cl)n1 [Compound 15, 2-(2-chlorophenyl)-N-(6-chloropyridin-2-yl)acetamide] | 111 µM | 31.2 µg/mL | > 500 µg/mL | 250 µg/mL (≈ 889 µM) | > 100 µM | > 500 µM | > 500 µM | > 500 µM | > 500 µM | > 500 µM | > 500 µM | > 500 µM | > 500 µM | > 500 µM | > 500 µM | > 500 µM | > 500 µM | > 500 µM | > 500 µM | > 500 µM | SI (selectivity index) [1]: > 0.9; MIC ([11]; 48 h, read-out: MIC CA 48h): > 500 µM; MIC ([12]; 24 h, read-out: MIC CK 24h): 500 µM (≈ 141 µg/mL); MIC ([12]; 48 h, read-out: MIC CK 48h): 500 µM (≈ 141 µg/mL); MIC ([13]; 24 h, read-out: MIC CP 24h): > 500 µM; MIC ([13]; 48 h, read-out: MIC CP 48h): > 500 µM; MIC ([14]; 24 h, read-out: MIC CT 24h): > 500 µM; MIC ([14]; 48 h, read-out: MIC CT 48h): > 500 µM; MIC [15, 20]: > 500 µM; MIC [15, 21]: > 500 µM; MIC [16, 22]: > 500 µM; MIC [16, 23]: > 500 µM; MIC ([17]; 72 h, read-out: MIC TI 72h): 500 µM (≈ 141 µg/mL); MIC ([17]; 120 h, read-out: MIC TI 120h): 500 µM (≈ 141 µg/mL); MIC [18, 24]: > 500 µM; MIC [18, 25]: > 500 µM; MIC KP 24h [19]: > 500 µmol/L; MIC KP 48h [19]: > 500 µmol/L
2 | O=C(Cc1cccc(Cl)c1)Nc1ccccn1 [Compound 16, 2-(3-chlorophenyl)-N-(pyridin-2-yl)acetamide] | 253 µM | 62.5 µg/mL | > 500 µg/mL | 250 µg/mL (≈ 1010 µM) | > 250 µM | 500 µM (≈ 123 µg/mL) | 500 µM (≈ 123 µg/mL) | > 500 µM | > 500 µM | 125 µM (≈ 30.8 µg/mL) | 250 µM (≈ 61.7 µg/mL) | > 500 µM | > 500 µM | > 500 µM | > 500 µM | > 500 µM | > 500 µM | > 500 µM | > 500 µM | > 500 µM | MIC ([11]; 48 h, read-out: MIC CA 48h): > 500 µM; MIC ([12]; 24 h, read-out: MIC CK 24h): > 500 µM; MIC ([12]; 48 h, read-out: MIC CK 48h): > 500 µM; MIC ([13]; 24 h, read-out: MIC CP 24h): > 500 µM; MIC ([13]; 48 h, read-out: MIC CP 48h): > 500 µM; MIC ([14]; 24 h, read-out: MIC CT 24h): > 500 µM; MIC ([14]; 48 h, read-out: MIC CT 48h): > 500 µM; MIC [15, 20]: > 500 µM; MIC [15, 21]: > 500 µM; MIC [16, 22]: > 500 µM; MIC [16, 23]: > 500 µM; MIC ([17]; 72 h, read-out: MIC TI 72h): 500 µM (≈ 123 µg/mL); MIC ([17]; 120 h, read-out: MIC TI 120h): 500 µM (≈ 123 µg/mL); MIC [18, 24]: > 500 µM; MIC [18, 25]: > 500 µM; MIC KP 24h [19]: > 500 µmol/L; MIC KP 48h [19]: > 500 µmol/L
3 | O=C(Cc1cccc(Cl)c1)Nc1cccc(Cl)n1 [Compound 18] | 55.6 µM | 15.6 µg/mL | > 500 µg/mL | 62.5 µg/mL (≈ 222 µM) | > 100 µM | > 500 µM | > 500 µM | > 500 µM | > 500 µM | > 500 µM | > 500 µM | > 500 µM | > 500 µM | > 500 µM | > 500 µM | > 500 µM | > 500 µM | > 500 µM | > 500 µM | > 500 µM | SI (selectivity index) [1]: > 1.8; MIC ([11]; 48 h, read-out: MIC CA 48h): > 500 µM; MIC ([12]; 24 h, read-out: MIC CK 24h): > 500 µM; MIC ([12]; 48 h, read-out: MIC CK 48h): > 500 µM; MIC ([13]; 24 h, read-out: MIC CP 24h): > 500 µM; MIC ([13]; 48 h, read-out: MIC CP 48h): > 500 µM; MIC ([14]; 24 h, read-out: MIC CT 24h): > 500 µM; MIC ([14]; 48 h, read-out: MIC CT 48h): > 500 µM; MIC [15, 20]: > 500 µM; MIC [15, 21]: > 500 µM; MIC [16, 22]: > 500 µM; MIC [16, 23]: > 500 µM; MIC ([17]; 72 h, read-out: MIC TI 72h): 500 µM (≈ 141 µg/mL); MIC ([17]; 120 h, read-out: MIC TI 120h): 500 µM (≈ 141 µg/mL); MIC [18, 24]: > 500 µM; MIC [18, 25]: > 500 µM; MIC KP 24h [19]: > 500 µmol/L; MIC KP 48h [19]: > 500 µmol/L
